Results from patent EP0081924A1, “Topical compostions for lowering intraocular pressure” (ALCON LABORATORIES, INC., priority 1981, dated 1983).
Structures can show the parent of a compound that is named as a salt. Where two headings read alike, the source gives them in different places.

Columns and labels:
Intraocular Pressure [1] = experiment: Normal Rabbit Model, IOP lowering after topical administration; type: in vivo, New Zealand albino rabbits; settings: Oryctolagus cuniculus, read-out: (B) 50uL 1% topical Normal Rabbit %IOP
Protocol: To determine the IOP reduction efficacy of the anti-glaucoma drugs of the invention in normal albino rabbits the following was done.
New Zealand albino rabbits (12) were acclimatized in restraining boxes for thirty minutes. Alcaine/ saline (1:5) was applied to the rabbit eyes and baseline IOP in mm Hg pressure were measured using an Alcon Laboratory Applanation Phneumatonograph. Then thirty minutes later, the coded test substance versus a coded saline control was administered as a 50 ul drop to one eye, six animals in each group. The treatment effects were measured as a function of time. Mean IOP and mean change in IOP for each hourly reading was recorded.
The effect cited is a peak percentage effect versus the external control test group.

Intraocular Pressure [2] = experiment: Rhesus Monkey - Laser Model, IOP lowering after topical administration; type: in vivo, Rhesus monkeys; settings: laser-induced ocular hypertension, peak effect, percentage change in the hypertensioned eye versus the same eye at the same hour the previous day
Protocol: A. Rhesus Monkey - Laser Model
Ocular hypertension was produced in adult Rhesus monkeys (4) via an argon laser photocoagulation of trabecular meshwork in the eye. The treated eye (only one is lasered) was allowed to heal and the IOP stabilized after about six weeks. Tests were performed by topical administration of one drop of a 0.5% solution of-the test agent to the Ketamine anesthetized Rhesus monkey's eye. The IOP charge was recorded by an Alcon Applanation Phneumatonograph. The peak effect was recorded as a percentage change in the hypertensioned eye versus the IOP value of the same eye recorded at the same hour the previous day.

[3] = 50uL 1% topical to one eye, peak percentage effect versus the external (saline) control group

| Compound | change in vivo at 1 % (Intraocular Pressure [1]; topical) [%] | change in vivo at 1 % (Intraocular Pressure [1]; [3]) [%] | (A) 50uL 0.5% topical Laser-Monkey %IOP (Intraocular Pressure [2]) [%] |
| --- | --- | --- | --- |
| Nc1ccc(Cl)c(N=C2NCCN2)c1Cl [2,6-Dichloro-N^1-(2-imidazolidinylidene)-1,3-benzenediamine hydrochloride] | 0 |  |  |
| OCc1cc(Cl)c(N=C2NCCN2)c(Cl)c1 [3.5-Dichloro-4-(2-imidazolidinylideneamino)-benzenemethanol] |  | 0 | -17 |
| CCOC(=O)c1cc(Cl)c(N=C2NCCN2)c(Cl)c1 [3,5-Dichloro-4-(2-imidazolidinylideneamino)-benzoic acid ethyl ester] |  | -5.6 |  |
| O=CNc1cc(Cl)c(N=C2NCCN2)c(Cl)c1 [N-[3,5-Dichloro-4-(2-imidazolidinylideneamino) -phenyl]-formamide Free Base] |  | -15.6 | -26.0 |
| O=C(O)c1cc(Cl)c(N=C2NCCN2)c(Cl)c1 [3,5-Dichloro-4-(2-imidazolidinylideneamino)-benzoic acid] |  | -4.5 |  |
| Clc1cccc(Cl)c1N=C1NCCN1 [2,6-Dichloro-N-2-imidazolidinylidene-benezamine, reference compound] |  | -13.9 | -32.0 |
| CN(C)c1cc(Cl)c(N=C2NCCN2)c(Cl)c1 [2,6-Dichloro-N^1-(2-imidazolidinylidene)-N^4, N^4-dimethyl-1,4-benzenediamine Dihydrochloride] | -10.2 |  |  |
| CC(=O)Nc1cc(Cl)c(N=C2NCCN2)c(Cl)c1.Cl [N-[3,5-Dichloro-4-(2-imidazolidinylideneamino)-phenyl]-acetamide Hydrochloride] |  | -19 | -4.0 |
| N#Cc1cc(Cl)c(N=C2NCCN2)c(Cl)c1 [4-Cyano-2,6-dichloro-N-(2-imidazolidinylidene)-benzamine Hydrochloride] |  | -2.3 |  |
| Cl.Oc1cc(Cl)c(N=C2NCCN2)c(Cl)c1 [3,5-Dichloro-4-(2-imidazolidinylideneamino)-phenol Hydrochloride] | -7.4 |  | -23.0 |
| Cl.Cl.Nc1cc(Cl)c(N=C2NCCN2)c(Cl)c1 [2,6-Dichloro-N^1-(2-imidazolidinylidene)-1,4-benzenediamine Dihydrochloride] |  | -1.3 | -21.0 |
